The text below walks through data of patent US20240189343A1, “TREATMENT OF VIRUS INFECTIONS” (priority 2021, published 2024).

Counter-ions that a name gives are not always drawn. Like-named read-outs stand apart in the source and are kept apart here.

The subject of data set [1] is DENV2 (strain New Guinea C). The data set can be described thus: microbe, parasite or virus in culture. The format is cell-based, dengue virus.
Another data set has as its system DENV3 (strain H87). The data set can be described thus: microbe, parasite or virus in culture. The format is cell-based, dengue virus.
The test system of another data set is DENV1 (strain Hawaii). The experiment in a line: microbe, parasite or virus in culture. Type of data set: cell-based, dengue virus.
In the next data set the test system is YF17D. The experiment in a line: microbe, parasite or virus in culture. The format is cell-based, yellow fever virus.
For data set [2], the system named is ZIKV African lineage (Strain MP1751). The data set can be described thus: microbe, parasite or virus in culture. The format is cell-based, Zika virus.
A further data set deals with DENV4 (strain H241). The data set can be described thus: microbe, parasite or virus in culture. Type of data set: cell-based, dengue virus.
Data set [3] relates to ZIKV Asian lineage (PF/13). The data set can be described thus: microbe, parasite or virus in culture. Type of data set: cell-based, Zika virus.
For a further data set, the system named is rats. The following applies: cited from earlier work.
Data set [4] concerns Zika virus PF13. The experiment in a line: Zika virus infection of Vero AD cells, immunofluorescence infectivity readout (Example 1). Type of data set: cell-based. The settings on record: for inhibition of Zika virus infection: Vero AD cells, MOI 0.05 and 0.01, 600, 200, 60 μg/ml, 1 h pre-incubation, 48 h. Here is the method: (§1) Cells were detached and counted. […] 50 μl of diluted virus or media (uninfected control) was immediately added. […] After 48 h, the plates were washed with PBS, fixed for 30 mins with 4% formaldehyde, washed again with PBS, and stored in PBS at 4° C. until staining. Cells were immunostained with immunofluorescence staining. Briefly, any residual formaldehyde was quenched with 50 mM ammonium chloride, after which cells were permeabilised (0.1% Triton X100) and stained with an antibody recognizing flavivirus envelope protein (Millipore, MAB10216). The primary antibodies were detected with an Alexa-488 conjugate secondary antibody (Life Technologies, A11001), and nuclei were stained with Hoechst. […] Normalized percentages of inhibition were calculated using the following formula: […]

Data set [5] concerns HeLa Kyoto cells. The data set can be described thus: MTT cytotoxicity on uninfected HeLa Kyoto cells (Example 1). The settings on record: 600, 200, 60 μg/ml.
Data set [6] concerns Zika virus PF13. The data set can be described thus: Zika virus infection of HeLa Kyoto cells, immunofluorescence infectivity readout (Example 1). Type of data set: cell-based. The following applies: MOI 0.5, 3 and 5, 600, 200, 60 μg/ml, 1 h pre-incubation, 48 h. The method, then: as §1
In the next data set the test system is Huh-7 cells. The settings on record: MTT, 48 h.
The subject of data set [7] is Huh-7 and HeLa Kyoto cells. The data set can be described thus: MTT cytotoxicity, Example 2, cell line not specified in the statement. The settings on record: highest concentration tested (10 mg/ml); no cytotoxicity at the other concentrations.
Data set [8] deals with HeLa Kyoto cells. The experiment in a line: MTT cytotoxicity in HeLa Kyoto cells (Example 2). The following applies: 48 h.
The next data set relates to Vero AD cells. The experiment in a line: MTT cytotoxicity on uninfected Vero AD cells (Example 1). The settings on record: 600, 200, 60 μg/ml.
Another data set deals with Zika virus. The settings on record: 200 μg/ml; Vero cells; cited from earlier work.

In general, EC50 refers to the concentration that produces a half-maximal response. For `CC[C@@]1([C@@H]2O[C@@H]([C@H]3O[C@@](O)(CO)[C@H](C)C[C@@H]3C)C[C@@H]2C)CC[C@H]([C@]2(C)CC[C@]3(C[C@H](O)[C@@H](C)[C@@H]([C@@H](C)[C@@H](OC)[C@H](C)C(=O)O)O3)O2)O1` [Monensin, Monensin sodium salt, reference compound], the EC50 is 0.88 nM in data set [1] (Dengue virus, DENV2, Huh-7); 0.69 nM in the data set on DENV3 (strain H87) (Dengue virus, DENV3, Huh-7); 1.19 nM in the data set on DENV1 (strain Hawaii) (Dengue virus, DENV1, Huh-7); 6.54 nM in the data set with YF17D (Yellow fever virus, Huh-7); 70.7 nM in data set [2] (Zika virus, HeLa Kyoto); 2.61 nM in the data set on DENV4 (strain H241) (Dengue virus, DENV4, Huh-7). In data set [3] (Zika virus, HeLa Kyoto), this compound came in with an EC50 of 68.1 nM.

In the case of dextran sulfate [listing 1 of 3 here], the toxicity to rats entry with rats is reported as “highly toxic”.

As to dextran sulfate [listing 2 of 3 here], the “IC50 (inhibition of infection)” value is at most 600 µg/mL in data set [1]; at most 600 µg/mL with DENV3 (strain H87); at most 600 µg/mL in the data set with DENV1 (strain Hawaii); “less than 0.05 mg/ml” in the data set with YF17D; “less than 0.140 mg/ml” in [2]; at most 600 µg/mL in the data set with DENV4 (strain H241). In addition, in [3], the “IC50 (inhibition of infection)” value is on record as “less than 0.140 mg/ml”. In addition, the EC50 is 120 µg/mL in data set [1] (48 h); 30 µg/mL in the data set on DENV3 (strain H87) (48 h); 290 µg/mL in the data set with DENV1 (strain Hawaii) (48 h); 40 µg/mL with YF17D (48 h); 60 µg/mL in data set [2] (48 h); 610 µg/mL with DENV4 (strain H241) (48 h). For the same compound, the 50% effective concentration (EC50) in data set [3] (48 h) was 140 µg/mL. Further, the “% of infection inhibition” value in the data set on Zika virus PF13 [4] (200 μg/ml, Vero cells, FIG. 2A (MOI 0.05)) was “more than 80%”. The “inhibition of Zika virus infection” value was “significant and dose dependent inhibition” in the data set on Zika virus PF13 [4]; “inhibits Zika virus infection in Vero cells in a concentration dependent manner” with Zika virus PF13 [4] (listed as dextran sulfate); “significant and dose dependent inhibition” in the data set with Zika virus PF13 [6]; “inhibits Zika virus infection in human Hela cells in a concentration dependent manner” with Zika virus PF13 [6] (listed as dextran sulfate). The “inhibition of virus infection into human cells” value (in the data set on DENV1 (strain Hawaii); with YF17D; in data set [3]) was over 90% each time. Also, the “cytotoxicity (MTT)” value with HeLa Kyoto cells [5] and with Vero AD cells was “No significant cytotoxicity” throughout. The TC50 in the data set on Huh-7 cells (table line Dengue virus 1 Hawaii strain (Huh-7)), in the data set with Huh-7 cells (table line Dengue virus 2 New Guinea C strain (Huh-7)), with Huh-7 cells (table line Dengue virus 3 H87 strain (Huh-7)), with Huh-7 cells (table line Dengue virus 4 H241 strain (Huh-7)), in the data set with Huh-7 cells (table line Yellow Fever virus 17D strain (Huh-7)) and in the data set with HeLa Kyoto cells [8] (table line Zika virus African strain (HeLa Kyoto)) was over 10000 µg/mL throughout. The compound further returned a TC50 in the data set with HeLa Kyoto cells [8] (table line Zika virus Asian strain (HeLa Kyoto)) of over 10000 µg/mL. The “cytotoxicity (maximal)” value in data set [7] is at most 16%.

In the case of dextran sulfate [listing 3 of 3 here], the “% infection inhibition” value in the data set on Zika virus was “about 60%”.
